#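 Growth conditions: 96-well plates. Treatment: test compound, 48 hours, 5 concentrations. Analysis: linear interpolation between bracketing concentrations; unreached endpoints set to highest concentration. Abbreviation: GI50, concentration required for 50% inhibition of growth. At the TGI there is no net growth.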
# Legend:
# Experiment in all cases: NCI anticancer screen, dose series, 48 h
# [1] = tested on: SW-620 colon
# [2] = tested on: OVCAR-3 ovarian
# [3] = tested on: NCI/ADR-RES ovarian
# [4] = tested on: RPMI-8226 leukemia
# [5] = tested on: CAKI-1 renal
# [6] = tested on: SK-OV-3 ovarian
# [7] = tested on: HOP-92 NSCLC
# [8] = tested on: ACHN renal
# [9] = tested on: NCI-H522 lung
# [10] = tested on: UO-31 renal
# [11] = tested on: NCI-H460 lung
# [12] = tested on: HT29 colon
# [13] = tested on: TK-10 renal
# [14] = tested on: SR leukemia
# [15] = tested on: MOLT-4 leukemia
# [16] = tested on: SNB-19 CNS
# [17] = tested on: K-562 leukemia
# [18] = tested on: OVCAR-4 ovarian
# [19] = tested on: SF-295 CNS
# [20] = tested on: HS 578T breast
# [21] = tested on: MDA-MB-435
# [22] = tested on: DU-145 prostate
# [23] = tested on: A498 renal
# [24] = tested on: SNB-75 CNS
# [25] = tested on: CCRF-CEM leukemia
# [26] = tested on: HL-60(TB) leukemia
# [27] = tested on: HCC-2998 colon
# [28] = tested on: EKVX NSCLC
# [29] = tested on: SF-268 CNS
# [30] = tested on: SK-MEL-2 melanoma
# [31] = tested on: COLO 205 colon
# [32] = tested on: OVCAR-8 ovarian
# [33] = tested on: OVCAR-5 ovarian
# [34] = tested on: HCT-116 colon
# [35] = tested on: NCI-H23 lung
# [36] = tested on: U251 CNS
# [37] = tested on: LOX IMVI melanoma
# [38] = tested on: 786-0 renal
# [39] = tested on: SN12C renal
# [40] = tested on: SK-MEL-28 melanoma
# [41] = tested on: NCI-H226 lung
# [42] = tested on: RXF 393 renal
# [43] = tested on: KM12 colon
# [44] = tested on: MCF7 breast
# [45] = tested on: SK-MEL-5 melanoma
# [46] = tested on: UACC-257 melanoma
# [47] = tested on: M14 melanoma
# [48] = tested on: HCT-15 colon
# [49] = tested on: A549 NSCLC
# [50] = tested on: BT-549 breast
# [51] = tested on: PC-3 prostate
# [52] = tested on: UACC-62 melanoma
# [53] = tested on: SF-539 CNS
# [54] = tested on: MDA-MB-231 breast
# [55] = tested on: IGROV1 ovarian
structure (smiles),measurement,setting,value
O=C(/C=C\c1ccc(OCCCCCC[P+](c2ccccc2)(c2ccccc2)c2ccccc2)cc1)c1ccc2c(c1)OCCO2,GI50,[1],1.11 µM
same,TGI,[1],2.55 µM
same,GI50,[2],0.423 µM
same,TGI,[2],1.61 µM
same,GI50,[3],4.31 µM
same,TGI,[3],> 100 µM
same,GI50,[4],0.296 µM
same,TGI,[4],1.3 µM
same,GI50,[5],1.84 µM
same,TGI,[5],3.88 µM
same,GI50,[6],1.58 µM
same,TGI,[6],3.88 µM
same,GI50,[7],0.487 µM
same,TGI,[7],2.79 µM
same,GI50,[8],1.79 µM
same,TGI,[8],3.29 µM
same,GI50,[9],0.885 µM
same,TGI,[9],4.42 µM
same,GI50,[10],1.52 µM
same,TGI,[10],3.2 µM
same,GI50,[11],1.01 µM
same,TGI,[11],2.5 µM
same,GI50,[12],0.912 µM
same,TGI,[12],3.24 µM
same,GI50,[13],1.58 µM
same,TGI,[13],3.81 µM
same,GI50,[14],0.656 µM
same,TGI,[14],9.07 µM
same,GI50,[15],2.32 µM
same,TGI,[15],8.57 µM
same,GI50,[16],0.462 µM
same,TGI,[16],1.74 µM
same,GI50,[17],0.494 µM
same,TGI,[17],> 100 µM
same,GI50,[18],0.415 µM
same,TGI,[18],3.42 µM
same,GI50,[19],1.78 µM
same,TGI,[19],3.46 µM
same,GI50,[20],0.827 µM
same,TGI,[20],5.02 µM
same,GI50,[21],0.985 µM
same,TGI,[21],2.21 µM
same,GI50,[22],1.21 µM
same,TGI,[22],2.6 µM
same,GI50,[23],0.376 µM
same,TGI,[23],1.95 µM
same,GI50,[24],0.623 µM
same,TGI,[24],2.72 µM
same,GI50,[25],1.22 µM
same,TGI,[25],6.15 µM
same,GI50,[26],0.326 µM
same,TGI,[26],1.3 µM
same,GI50,[27],1.01 µM
same,TGI,[27],2.2 µM
same,GI50,[28],1.5 µM
same,TGI,[28],6.72 µM
same,GI50,[29],0.585 µM
same,TGI,[29],3.19 µM
same,GI50,[30],1.41 µM
same,TGI,[30],3.9 µM
CC1CCC(C#N)(NOC2=NCCN2)CC1 (stereo unspecified),GI50,[1],33.2 µM
same,TGI,[1],> 100 µM
same,GI50,[2],28.9 µM
same,TGI,[2],> 100 µM
same,GI50,[3],> 100 µM
same,TGI,[3],> 100 µM
same,GI50,[4],40.4 µM
same,TGI,[4],> 100 µM
same,GI50,[31],36 µM
same,TGI,[31],> 100 µM
same,GI50,[32],29.2 µM
same,TGI,[32],> 100 µM
same,GI50,[5],16.2 µM
same,TGI,[5],33.8 µM
same,GI50,[33],> 100 µM
same,TGI,[33],> 100 µM
same,GI50,[7],35.4 µM
same,TGI,[7],91.3 µM
same,GI50,[8],15.2 µM
same,TGI,[8],30.1 µM
same,GI50,[9],39.6 µM
same,TGI,[9],> 100 µM
same,GI50,[34],63.8 µM
same,TGI,[34],> 100 µM
same,GI50,[35],34 µM
same,TGI,[35],> 100 µM
same,GI50,[10],11.6 µM
same,TGI,[10],> 100 µM
same,GI50,[11],37.7 µM
same,TGI,[11],> 100 µM
same,GI50,[12],> 100 µM
same,TGI,[12],> 100 µM
same,GI50,[36],15.8 µM
same,TGI,[36],32.4 µM
same,GI50,[37],5.33 µM
same,TGI,[37],20.2 µM
same,GI50,[13],26.3 µM
same,TGI,[13],> 100 µM
same,GI50,[14],38.7 µM
same,TGI,[14],> 100 µM
same,GI50,[15],37.3 µM
same,TGI,[15],> 100 µM
same,GI50,[16],> 100 µM
same,TGI,[16],> 100 µM
same,GI50,[38],16.3 µM
same,TGI,[38],37.1 µM
same,GI50,[39],36.2 µM
same,TGI,[39],> 100 µM
same,GI50,[40],> 100 µM
same,TGI,[40],> 100 µM
same,GI50,[41],15.2 µM
same,TGI,[41],34.1 µM
same,GI50,[42],> 100 µM
same,TGI,[42],> 100 µM
same,GI50,[17],29.8 µM
same,TGI,[17],> 100 µM
same,GI50,[43],42.6 µM
same,TGI,[43],> 100 µM
same,GI50,[44],55.6 µM
same,TGI,[44],> 100 µM
same,GI50,[18],47.2 µM
same,TGI,[18],> 100 µM
same,GI50,[19],23.6 µM
same,TGI,[19],93.4 µM
same,GI50,[20],> 100 µM
same,TGI,[20],> 100 µM
same,GI50,[45],38.6 µM
same,TGI,[45],> 100 µM
same,GI50,[46],> 100 µM
same,TGI,[46],> 100 µM
same,GI50,[21],29.2 µM
same,TGI,[21],> 100 µM
same,GI50,[22],39.9 µM
same,TGI,[22],> 100 µM
same,GI50,[47],46.4 µM
same,TGI,[47],> 100 µM
same,GI50,[48],27.8 µM
same,TGI,[48],> 100 µM
same,GI50,[23],40.5 µM
same,TGI,[23],> 100 µM
same,GI50,[24],> 100 µM
same,TGI,[24],> 100 µM
same,GI50,[49],39.4 µM
same,TGI,[49],> 100 µM
same,GI50,[50],31.3 µM
same,TGI,[50],> 100 µM
same,GI50,[51],> 100 µM
same,TGI,[51],> 100 µM
same,GI50,[52],25.4 µM
same,TGI,[52],> 100 µM
same,GI50,[53],23.4 µM
same,TGI,[53],45.4 µM
same,GI50,[54],54.9 µM
same,TGI,[54],> 100 µM
same,GI50,[25],56 µM
same,TGI,[25],> 100 µM
same,GI50,[26],34.5 µM
same,TGI,[26],> 100 µM
same,GI50,[55],41.7 µM
same,TGI,[55],> 100 µM
same,GI50,[28],36.1 µM
same,TGI,[28],> 100 µM
same,GI50,[29],63.1 µM
same,TGI,[29],> 100 µM
same,GI50,[30],> 100 µM
same,TGI,[30],> 100 µM
